{"source": "patent US20080248012A1", "about": "“Erythrocyte Function Modifying Substance” (KEIO UNIVERSITY, priority 2004, published 2008)", "tested_on": "human erythrocytes", "experiment": "ATP release from erythrocytes at adjusted oxygen / CO2 partial pressure, luciferin assay", "type": "cell-based", "settings": "for ATP release at various CO2 partial pressures: PCO2 0 to 80 mmHg, 5 minutes; for ATP release from erythrocytes in relation to oxygen partial pressure: PO2 0-150 mmHg, 37° C., 5 min, bezafibrate 10^−4 mol/L (30 min), 100% CO gas 1 min, NO 0.5 equivalents to hemoglobin", "description": "Human peripheral blood sample (20 ml) was taken, heparinized and centrifuged at 2000 rpm for 7 minutes. The erythrocyte pellet was collected and washed. Then, an erythrocyte suspension (1×10^7 cells/ml) was prepared with Krebs buffer. A tightly sealed cuvette containing 1.8 ml of Krebs buffer in which oxygen concentration is adjusted at a desired level within a range of 0-150 mmHg was incubated at 37° C. A 200 μl aliquot of the erythrocyte suspension was injected into the tightly sealed cuvette with a microsyringe. After 5 minutes, the cuvette was placed in ice at 4° C. to terminate the reaction. A 200 μd sample was taken while it was still 4° C., and centrifuged. The ATP in the resultant supernatant was quantitatively determined by luciferin assay.\nIn this example, the effects of carbon monoxide-saturated erythrocytes (CO-Hb) and NO treated erythrocytes (αNO-Hb) on ATP release were examined. The method was as described in Example 1 above. In order to examine the effect of NO, an experiment was conducted using erythrocytes prepared as described below. Briefly, collected erythrocytes were completely deoxygenated by feeding argon gas. Then, NO-glutathione was added thereto so that the concentration of this substance to the concentration of Hb was 1:2. Several minutes after the addition, the erythrocytes were centrifuged and recovered. The hemoglobin contained in the above erythrocytes is expressed as “αNO-Hb”.\nBriefly, adenosine was added to the extracellular fluid of erythrocytes for 5 minutes. To a tightly sealed cuvette containing Krebs buffer adjusted to have a desired oxygen partial pressure within a range of 0-150 mmHg, the erythrocyte suspension was injected and the reaction was terminated 1 minute thereafter.\nThe method used was according to the method in Example 1. The amounts of ATP release when erythrocytes were exposed to various CO2 partial pressures (PCO2) from 0 to 80 mmHg for 5 minutes were measured.", "note": "Entries after “also recorded” stand apart in the source; their conditions may differ."}
{"smiles": "O=C=O", "note": "[carbon dioxide]", "values": [{"measurement": "ATP release at various CO2 partial pressures", "setting": "Anoxia (no oxygen state)", "value": "not affected by PCO2"}, {"measurement": "ATP release at various CO2 partial pressures", "setting": "Normoxia", "value": "increased at 60-80 mmHg"}]}
{"smiles": "[C-]#[O+]", "note": "[CO, carbon monoxide]", "values": [{"measurement": "ATP release from erythrocytes in relation to oxygen partial pressure", "value": "this ability was completely eliminated"}, {"measurement": "ATP release from erythrocytes in relation to oxygen partial pressure", "setting": "listed as carbon monoxide", "value": "released little ATP regardless of the oxygen partial pressure"}]}
{"smiles": "N[C@@H](CCC(=O)N[C@@H](CSN=O)C(=O)NCC(=O)O)C(=O)O", "note": "[NO derivative, NO-glutathione]", "values": [{"measurement": "ATP release from erythrocytes in relation to oxygen partial pressure", "value": "released ATP constantly regardless of the oxygen partial pressure"}]}
{"smiles": "Nc1ncnc2c1ncn2[C@@H]1O[C@H](CO)[C@@H](O)[C@H]1O", "note": "[adenosine]", "values": [{"measurement": "enhancement of ATP release under normal oxygen concentration", "setting": "1 μmol/L adenosine in extracellular fluid 5 min", "value": "enhanced almost two times"}, {"measurement": "enhancement of ATP release under no oxygen or low oxygen", "setting": "1 μmol/L adenosine in extracellular fluid 5 min, then no/low oxygen 1 minute", "value": "enhanced almost two times; also recorded: increases ATP release about two times; also recorded: enhanced about two times"}, {"measurement": "ATP release enhancement, adenosine combined with carbon dioxide", "setting": "Normoxia, raised PCO2, in the presence of adenosine", "value": "synergetic high effect"}]}
{"smiles": "[N]=O", "note": "[NO, nitric oxide]", "values": [{"measurement": "ATP release from erythrocytes in relation to oxygen partial pressure", "value": "released ATP constantly regardless of the oxygen concentration"}]}
{"smiles": "O=S(=O)(O)c1cc(N=C=S)ccc1C=Cc1ccc(N=C=S)cc1S(=O)(=O)O", "note": "[DIDS, 4,4′-diisothiocyanate-stilbene-2,2′-disulfonic acid]", "values": [{"measurement": "ATP release increase due to low oxygen", "setting": "10^−4 mol/L DIDS, oxygen partial pressures of 0-140 mmHg", "value": "inhibits ATP release increase due to low oxygen"}, {"measurement": "amount of ATP release, DIDS addition vs no addition", "setting": "CO(+) erythrocytes, presence/absence of adenosine", "value": "no difference"}, {"measurement": "ATP release increase due to low oxygen, concentration-dependent effect", "setting": "CO-untreated erythrocytes, Anoxia 0 mmHg vs Normoxia", "value": "inhibited depending on the concentration of DIDS"}]}
